Measured values taken from patent publication US20040058868A1, “Methods for identification of compounds modulating insulin resistance” (priority 2002, published 2004).

Assays:
[1] = system: IRS-1 tyrosine phosphorylation in MCF-7 cells; experiment: IRS-1 tyrosine phosphorylation: immunoprecipitation with anti-IRS-1, western blot with anti-phospho-tyrosine antibodies; type: cell-based, human; conditions: insulin 10 min, FIG. 3
Procedure: FIG. 3 illustrates immunoprecipitation of IRS-1 and detection of antiphosphotyrosine. MCF-7 cells were treated as follows: lane 1: insulin 10 min; lane 2: PMA & TSA for 4 h and insulin 10 min; lane 3: PMA for 4 h and insulin 10 min; lane 4: PMA & TSA for 4 h; lane 5: PMA for 4 h; lane 6: control (vehicle);
(§1) To further validate the IRS-1/HDAC2 interaction, several mammalian cell lines were used. MCF-7 is a human breast adenocarcinoma cell line, HepG2 is a hepatocellular carcinoma cell line and L6 is a rat skeletal muscle cell line. The MCF-7 cell line was chosen since these cells have a high endogenous production of IRS-1. Cells were grown to confluency, treated with IGF-1 or PMA ([…]) for different lengths of time and then harvested in hypotonic cell lysis buffer (comprising 20 mM Hepes, pH 7.6, 20% glycerol, 10 mM NaCl, 1.5 mM MgCl2, 0.2 mM EDTA, 0.1% NP40, 25 mM NaF, 25 mM β-glycerophosphate, 1 mM DTT, 1 mM Na orthovanadate with protease inhibitors). All precleared fractions were matched for protein content and then immunoprecipitated with anti-IRS-1 antibody. […] A similar. experiment was performed the other way around, i.e. HDAC2 was immunoprecipitated from the cell extracts and the subsequent membrane was probed with anti-IRS-1 antibodies. […]

[2] = system: IRS-1/HDAC2 interaction; experiment: Coimmunoprecipitation of IRS-1 and HDAC2 in MCF-7 cells; type: cell-based, human; conditions: MCF-7 cells treated with PMA; IP with anti-IRS-1 or anti-HDAC2
Procedure: To further validate the IRS-1/HDAC2 interaction, several mammalian cell lines were used. MCF-7 is a human breast adenocarcinoma cell line, HepG2 is a hepatocellular carcinoma cell line and L6 is a rat skeletal muscle cell line. The MCF-7 cell line was chosen since these cells have a high endogenous production of IRS-1. Cells were grown to confluency, treated with IGF-1 or PMA ([…]) for different lengths of time and then harvested in hypotonic cell lysis buffer (comprising 20 mM Hepes, pH 7.6, 20% glycerol, 10 mM NaCl, 1.5 mM MgCl2, 0.2 mM EDTA, 0.1% NP40, 25 mM NaF, 25 mM β-glycerophosphate, 1 mM DTT, 1 mM Na orthovanadate with protease inhibitors). All precleared fractions were matched for protein content and then immunoprecipitated with anti-IRS-1 antibody. […] A similar. experiment was performed the other way around, i.e. HDAC2 was immunoprecipitated from the cell extracts and the subsequent membrane was probed with anti-IRS-1 antibodies.

[3] = clinical trials in humans, reference [26]; cited from earlier work
[4] = system: IRS-1 acetylation in MCF-7 cells; experiment: IRS-1 acetylation: immunoprecipitation with anti-IRS-1, western blot with anti-acetyl lysine antibodies; type: cell-based, human; conditions: MCF-7 cells treated with TSA
Procedure: FIG. 2 illustrates immunoprecipitation of IRS-1 and detection of anti-acetyl-lysine. MCF-7 cells were treated as follows: lane 1: IGF-1 for 10 min; lane 2: IGF-1 for 30 min; lane 3: IGF-1 for 1 h; lane 4: IGF-1 for 6 h; lane 5: IGF-1 for 24 h; lane 6: PMA for 6 h; lane 7: PMA for 6 h and IGF-1 for 10 min; lane 8: PMA for 24 h; lane 9: PMA and TSA for 6 h; lane 10: TSA for 6 h; lane 11: control (vehicle).
as §1

[5] = system: IRS-1/HDAC2 interaction; experiment: Coimmunoprecipitation of IRS-1 and HDAC2 in L6 cells; type: cell-based, rat; conditions: stimulation with insulin
Procedure: To further validate the IRS-1/HDAC2 interaction, several mammalian cell lines were used. MCF-7 is a human breast adenocarcinoma cell line, HepG2 is a hepatocellular carcinoma cell line and L6 is a rat skeletal muscle cell line. The MCF-7 cell line was chosen since these cells have a high endogenous production of IRS-1. Cells were grown to confluency, […] cell lysis buffer (comprising 20 mM Hepes, pH 7.6, 20% glycerol, 10 mM NaCl, 1.5 mM MgCl2, 0.2 mM EDTA, 0.1% NP40, 25 mM NaF, 25 mM β-glycerophosphate, 1 mM DTT, 1 mM Na orthovanadate with protease inhibitors). All precleared fractions were matched for protein content and then immunoprecipitated with anti-IRS-1 antibody. […] A similar. experiment was performed the other way around, i.e. HDAC2 was immunoprecipitated from the cell extracts and the subsequent membrane was probed with anti-IRS-1 antibodies.

[6] = system: IRS-1/HDAC2 interaction; experiment: Coimmunoprecipitation of IRS-1 and HDAC2 in HepG2 cells; type: cell-based; conditions: stimulation with insulin
Procedure: To further validate the IRS-1/HDAC2 interaction, several mammalian cell lines were used. MCF-7 is a human breast adenocarcinoma cell line, HepG2 is a hepatocellular carcinoma cell line and L6 is a rat skeletal muscle cell line. The MCF-7 cell line was chosen since these cells have a high endogenous production of IRS-1. […] All precleared fractions were matched for protein content and then immunoprecipitated with anti-IRS-1 antibody. […] A similar. experiment was performed the other way around, i.e. HDAC2 was immunoprecipitated from the cell extracts and the subsequent membrane was probed with anti-IRS-1 antibodies.

Molecule: CCCCCCCCCCCCCC(=O)O[C@@H]1[C@@H](C)[C@@]2(O)[C@@H](C=C(CO)C[C@]3(O)C(=O)C(C)=C[C@@H]23)[C@@H]2C(C)(C)[C@]12OC(C)=O [PMA, phorbol myristic acid]
- insulin-stimulated tyrosine phosphorylation of IRS-1 (insulin resistance) ([1]; PMA 4 h): makes the cells insulin resistant
- interaction between IRS-1 and HDAC2 (coimmunoprecipitation) [2]: the interaction is PMA-driven

Molecule: O=C(CCCCCCC(=O)Nc1ccccc1)NO [SAHA, suberoylanilide hydroxamic acid]
- tolerability / toxicity [3]: well-tolerated, are not toxic

Molecule: CC(/C=C/C(=O)NO)=C\[C@@H](C)C(=O)c1ccc(N(C)C)cc1 [TSA, Trichostatin A]
- acetylation of IRS-1 ([4]; FIG. 2): significantly pronounced
- acetylation of IRS-1 ([4]; FIG. 2, listed as Trichostatin A): enhanced
- reversal of PMA-induced insulin resistance (tyrosine phosphorylation of IRS-1) ([1]; PMA and TSA simultaneously 4 h): insulin resistance can to a large extent be remedied

Molecule: insulin: insulin used to stimulate cells
- interaction between IRS-1 and HDAC2 (coimmunoprecipitation) [5]: not influenced
- interaction between IRS-1 and HDAC2 (coimmunoprecipitation) [6]: not influenced
